Results as given in US20230406838A1, “MUTANT SELECTIVE EGFR INHIBITORS AND METHODS OF USE THEREOF” (Dana-Farber Cancer Institute, Inc., priority 2020, published 2023).

Legend:
[1] = target: EGFR L858R (Homo sapiens, UniProt P00533, L858R); experiment: HTRF-based EGFR biochemical assay, L858R; details: 100 μM ATP, enzyme 0.1 nM
Procedure: (§1) EGFR biochemical activity measurements were carried out using the homogeneous time-resolved fluorescence (HTRF) assay (Cisbio). Inhibitors and DMSO normalizations were first dispensed to empty black low-volume 384-well plates (Corning) with D300 digital liquid dispenser (HP). All reactions were carried out at room temperature and solutions were added to plates with a Multidrop Combi Reagent Dispenser (ThermoFisher). The reaction mixture (10 μL final volume) contained 1 μM tyrosine kinase peptide-biotin substrate and mutant EGFR in a reaction buffer (50 mM HEPES pH 7.0, 5 mM MgCl2, 1 mM MnCl2, 0.01% BSA, 2 mM TCEP, 0.1 mM NaVO4). […] Enzyme reaction solution (2× concentrations, 5 μL) was added to 384-well plates containing compounds and incubated for 30 mins. Enzyme reactions were initiated with the addition of 5 μL of ATP to a final concentration of 100 μM and reacted for 20 mins.

[2] = target: WT EGFR Ba/F3 cells (Homo sapiens, UniProt P00533, cells depend on it, form not given); experiment: Ba/F3 cell proliferation (Cell Titer Glo), WT; type: cell-based, murine; details: Ba/F3, 72 hours, value in parentheses, meaning not explained, read-out: WT, inhibition of growth (value in parentheses)
Procedure: (§2) 100 units/mL streptomycin. The EGFR I941R mutation was introduced via site directed mutagenesis using the Quick Change Site-Directed Mutagenesis kit (Stratagene; La Jolla, CA) according to the manufacturer's instructions. All constructs were confirmed by DNA sequencing. The constructs were shuttled into the retroviral vector JP1540 using the Cre-recombination system (Agilent Technologies, Santa Clara, CA). […] Stable clones were obtained by selection in puromycin (2 μg/ml).
(§3) Growth and inhibition of growth was assessed by the Cell Titer Glo assay (Promega, Madison, WI) and was performed according to the manufacturer's instructions. The Cell Titer Glo assay is a luminescence-based method used to determine the number of viable cells based on quantitation of the ATP present, which is directly proportional to the amount of metabolically active cells present. […] All experimental points were set up in triplicates in 384-well plates and all experiments were repeated at least three times. […] The curves were fitted using a non-linear regression model with a sigmoidal dose response.

[3] = target: EGFR L858R/T790M Ba/F3 cells (Homo sapiens, UniProt P00533, T790M/L858R, cells depend on it); experiment: Ba/F3 cell proliferation (Cell Titer Glo), L858R/T790M; type: cell-based, murine; details: Ba/F3, 72 hours, value in parentheses, meaning not explained, read-out: L858R/T790M, inhibition of growth (value in parentheses)
Procedure: as §2, §3

[4] = target: EGFR WT (Homo sapiens, UniProt P00533); experiment: HTRF-based EGFR biochemical assay, WT; details: 100 μM ATP, enzyme 5 nM
[5] = target: EGFR L858R/T790M/C797S (Homo sapiens, UniProt P00533, C797S/L858R/T790M); experiment: HTRF-based EGFR biochemical assay, L858R/T790M/C797S; details: 100 μM ATP, enzyme 0.02 nM
Procedure: as §1

[6] = target: EGFR L858R Ba/F3 cells (Homo sapiens, UniProt P00533, L858R, cells depend on it); experiment: Ba/F3 cell proliferation (Cell Titer Glo), L858R; type: cell-based, murine; details: Ba/F3, 72 hours, value in parentheses, meaning not explained, read-out: L858R, inhibition of growth (value in parentheses)
Procedure: as §2, §3

[7] = target: EGFR L858R/T790M/C797S Ba/F3 cells (Homo sapiens, UniProt P00533, T790M/C797S/L858R, cells depend on it); experiment: Ba/F3 cell proliferation (Cell Titer Glo), L858R/T790M/C797S; type: cell-based, murine; details: Ba/F3, 72 hours, value in parentheses, meaning not explained, read-out: L858R/T790M/C797S, inhibition of growth (value in parentheses)
Procedure: as §2, §3

[8] = target: EGFR L858R/T790M (Homo sapiens, UniProt P00533, L858R/T790M); experiment: HTRF-based EGFR biochemical assay, L858R/T790M; details: 100 μM ATP, enzyme 0.02 nM
Procedure: as §1

Sequence of EGFR L858R Ba/F3 cells (P00533 whole entry L858R): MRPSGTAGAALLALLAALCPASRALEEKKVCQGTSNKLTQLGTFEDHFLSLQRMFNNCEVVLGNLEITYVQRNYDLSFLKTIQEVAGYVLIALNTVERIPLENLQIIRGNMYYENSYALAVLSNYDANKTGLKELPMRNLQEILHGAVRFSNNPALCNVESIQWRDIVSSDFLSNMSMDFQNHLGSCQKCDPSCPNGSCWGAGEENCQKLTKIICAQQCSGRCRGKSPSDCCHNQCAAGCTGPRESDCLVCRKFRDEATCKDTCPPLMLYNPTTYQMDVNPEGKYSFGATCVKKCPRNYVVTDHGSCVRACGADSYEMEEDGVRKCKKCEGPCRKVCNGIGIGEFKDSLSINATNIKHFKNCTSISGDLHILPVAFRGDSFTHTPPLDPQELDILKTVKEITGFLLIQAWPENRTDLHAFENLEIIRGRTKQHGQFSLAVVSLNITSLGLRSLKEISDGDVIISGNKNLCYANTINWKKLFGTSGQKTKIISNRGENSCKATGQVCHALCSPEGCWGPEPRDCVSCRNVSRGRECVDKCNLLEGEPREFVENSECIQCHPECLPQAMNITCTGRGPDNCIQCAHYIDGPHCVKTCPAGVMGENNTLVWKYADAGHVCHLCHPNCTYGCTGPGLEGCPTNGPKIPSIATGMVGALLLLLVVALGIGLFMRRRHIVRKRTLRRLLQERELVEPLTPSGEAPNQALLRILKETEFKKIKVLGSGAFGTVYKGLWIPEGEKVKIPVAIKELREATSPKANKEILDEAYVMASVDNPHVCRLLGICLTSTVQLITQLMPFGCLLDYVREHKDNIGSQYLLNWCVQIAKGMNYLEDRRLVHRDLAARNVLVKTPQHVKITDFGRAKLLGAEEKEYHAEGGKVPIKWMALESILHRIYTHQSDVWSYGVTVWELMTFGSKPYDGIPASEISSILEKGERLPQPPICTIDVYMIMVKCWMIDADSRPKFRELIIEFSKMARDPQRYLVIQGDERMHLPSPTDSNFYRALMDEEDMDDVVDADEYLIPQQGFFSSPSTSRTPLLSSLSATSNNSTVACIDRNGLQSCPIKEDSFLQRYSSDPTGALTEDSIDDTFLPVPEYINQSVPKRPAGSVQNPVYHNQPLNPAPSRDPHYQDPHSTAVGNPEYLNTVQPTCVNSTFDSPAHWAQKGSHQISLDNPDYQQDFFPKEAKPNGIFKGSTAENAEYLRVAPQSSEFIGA
Sequence of WT EGFR Ba/F3 cells (P00533 whole entry, stated change not applied): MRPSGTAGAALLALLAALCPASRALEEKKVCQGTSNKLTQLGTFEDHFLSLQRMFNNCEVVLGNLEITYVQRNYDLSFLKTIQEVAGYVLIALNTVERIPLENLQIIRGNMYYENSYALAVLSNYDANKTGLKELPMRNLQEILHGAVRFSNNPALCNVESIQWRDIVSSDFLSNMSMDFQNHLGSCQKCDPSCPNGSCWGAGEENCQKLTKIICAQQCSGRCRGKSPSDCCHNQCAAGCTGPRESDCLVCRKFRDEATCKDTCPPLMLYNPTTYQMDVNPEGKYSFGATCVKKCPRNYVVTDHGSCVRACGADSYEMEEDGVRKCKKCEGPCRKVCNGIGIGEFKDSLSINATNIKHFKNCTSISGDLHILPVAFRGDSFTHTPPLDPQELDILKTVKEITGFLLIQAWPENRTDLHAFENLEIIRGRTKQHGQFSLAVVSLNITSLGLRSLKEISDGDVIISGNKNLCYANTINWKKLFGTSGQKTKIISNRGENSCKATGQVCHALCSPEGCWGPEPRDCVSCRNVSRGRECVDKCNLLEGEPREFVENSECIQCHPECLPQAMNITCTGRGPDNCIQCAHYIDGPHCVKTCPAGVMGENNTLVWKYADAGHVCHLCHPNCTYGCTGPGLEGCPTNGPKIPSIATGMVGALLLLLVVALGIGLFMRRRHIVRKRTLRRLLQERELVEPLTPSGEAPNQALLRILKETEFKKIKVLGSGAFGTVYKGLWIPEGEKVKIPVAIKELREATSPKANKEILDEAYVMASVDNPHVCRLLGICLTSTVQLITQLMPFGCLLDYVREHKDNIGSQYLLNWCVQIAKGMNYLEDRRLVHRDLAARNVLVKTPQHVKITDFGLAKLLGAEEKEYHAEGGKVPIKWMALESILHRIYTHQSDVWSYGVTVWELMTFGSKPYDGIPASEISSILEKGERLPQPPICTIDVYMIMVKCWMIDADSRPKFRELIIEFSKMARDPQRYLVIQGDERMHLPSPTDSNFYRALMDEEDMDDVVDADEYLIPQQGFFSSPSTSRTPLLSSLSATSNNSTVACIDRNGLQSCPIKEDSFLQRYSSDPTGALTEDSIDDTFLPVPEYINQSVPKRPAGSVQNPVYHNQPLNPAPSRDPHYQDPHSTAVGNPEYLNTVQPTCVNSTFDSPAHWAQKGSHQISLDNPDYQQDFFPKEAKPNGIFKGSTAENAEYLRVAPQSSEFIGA
Sequence of EGFR L858R/T790M/C797S Ba/F3 cells (P00533 whole entry T790M/C797S/L858R): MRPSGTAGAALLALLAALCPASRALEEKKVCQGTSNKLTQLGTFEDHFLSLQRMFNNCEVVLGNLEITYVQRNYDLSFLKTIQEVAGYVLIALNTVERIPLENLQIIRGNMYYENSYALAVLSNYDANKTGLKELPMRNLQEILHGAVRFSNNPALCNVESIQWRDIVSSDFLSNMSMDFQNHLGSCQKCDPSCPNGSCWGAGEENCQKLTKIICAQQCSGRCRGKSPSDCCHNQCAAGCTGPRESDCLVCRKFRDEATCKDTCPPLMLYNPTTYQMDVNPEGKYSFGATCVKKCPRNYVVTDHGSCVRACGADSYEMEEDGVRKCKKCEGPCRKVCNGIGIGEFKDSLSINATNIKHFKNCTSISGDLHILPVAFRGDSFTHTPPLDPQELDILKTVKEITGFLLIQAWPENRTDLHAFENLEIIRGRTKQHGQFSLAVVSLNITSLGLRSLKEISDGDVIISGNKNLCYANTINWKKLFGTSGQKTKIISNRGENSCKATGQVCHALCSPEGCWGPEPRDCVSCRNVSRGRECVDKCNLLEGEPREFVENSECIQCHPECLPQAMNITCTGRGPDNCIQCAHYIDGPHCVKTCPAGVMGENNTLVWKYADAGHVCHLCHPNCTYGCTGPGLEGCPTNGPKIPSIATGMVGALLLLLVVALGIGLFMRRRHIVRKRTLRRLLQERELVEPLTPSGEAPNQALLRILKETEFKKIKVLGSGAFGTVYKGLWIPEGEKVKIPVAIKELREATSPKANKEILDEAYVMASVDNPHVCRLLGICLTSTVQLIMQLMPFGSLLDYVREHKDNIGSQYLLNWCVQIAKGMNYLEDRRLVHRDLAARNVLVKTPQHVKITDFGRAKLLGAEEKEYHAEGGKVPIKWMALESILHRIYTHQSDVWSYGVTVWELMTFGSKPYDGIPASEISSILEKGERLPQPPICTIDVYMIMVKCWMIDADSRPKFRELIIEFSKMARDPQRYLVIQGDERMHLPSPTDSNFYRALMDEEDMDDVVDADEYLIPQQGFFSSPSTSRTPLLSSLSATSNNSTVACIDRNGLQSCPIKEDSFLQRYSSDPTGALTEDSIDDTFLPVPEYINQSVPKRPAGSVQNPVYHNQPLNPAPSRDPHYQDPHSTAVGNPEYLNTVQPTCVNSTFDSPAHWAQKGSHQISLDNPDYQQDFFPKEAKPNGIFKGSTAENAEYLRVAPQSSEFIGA
Sequence of EGFR L858R/T790M Ba/F3 cells (P00533 whole entry T790M/L858R): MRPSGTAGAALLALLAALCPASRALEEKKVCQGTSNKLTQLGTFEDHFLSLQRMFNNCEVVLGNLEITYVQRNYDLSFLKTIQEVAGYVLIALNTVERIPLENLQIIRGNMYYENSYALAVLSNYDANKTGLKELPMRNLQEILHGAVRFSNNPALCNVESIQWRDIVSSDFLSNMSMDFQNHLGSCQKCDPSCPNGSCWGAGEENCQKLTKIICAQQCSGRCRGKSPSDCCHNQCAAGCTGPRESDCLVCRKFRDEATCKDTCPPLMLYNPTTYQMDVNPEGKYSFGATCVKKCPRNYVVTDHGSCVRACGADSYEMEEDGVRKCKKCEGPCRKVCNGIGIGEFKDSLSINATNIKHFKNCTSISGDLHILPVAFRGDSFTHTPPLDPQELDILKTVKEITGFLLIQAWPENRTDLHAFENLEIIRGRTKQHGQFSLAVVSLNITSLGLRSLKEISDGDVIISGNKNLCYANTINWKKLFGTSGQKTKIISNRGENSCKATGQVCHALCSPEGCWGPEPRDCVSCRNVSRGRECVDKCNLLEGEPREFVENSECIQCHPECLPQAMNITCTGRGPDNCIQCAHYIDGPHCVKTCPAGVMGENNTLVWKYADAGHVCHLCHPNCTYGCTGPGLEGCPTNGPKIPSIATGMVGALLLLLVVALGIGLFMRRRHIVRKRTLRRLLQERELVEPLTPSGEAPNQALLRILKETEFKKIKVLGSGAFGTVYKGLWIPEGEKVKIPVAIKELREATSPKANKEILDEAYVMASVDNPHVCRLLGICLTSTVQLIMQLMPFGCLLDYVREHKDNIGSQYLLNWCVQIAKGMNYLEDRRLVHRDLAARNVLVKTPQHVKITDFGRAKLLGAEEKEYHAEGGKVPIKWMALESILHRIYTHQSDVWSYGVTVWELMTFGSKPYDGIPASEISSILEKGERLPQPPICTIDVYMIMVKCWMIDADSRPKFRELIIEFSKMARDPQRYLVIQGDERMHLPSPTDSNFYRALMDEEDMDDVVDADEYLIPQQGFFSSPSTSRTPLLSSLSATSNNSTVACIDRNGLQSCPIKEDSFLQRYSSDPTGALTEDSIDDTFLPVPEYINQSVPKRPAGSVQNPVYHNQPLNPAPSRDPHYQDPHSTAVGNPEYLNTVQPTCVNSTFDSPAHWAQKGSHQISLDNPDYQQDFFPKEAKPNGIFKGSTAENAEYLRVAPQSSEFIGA

Compound	IC50 [1] [µM]	EC50 [2] [µM]	EC50 [3] [µM]	IC50 [4] [µM]	IC50 [5] [µM]	EC50 [6] [µM]	EC50 [7] [µM]	IC50 [8] [µM]
CSc1nc(-c2cccc(NC(=O)c3ccccc3CN3Cc4ccccc4C3=O)c2)c(-c2ccnc(NC(C)=O)c2)[nH]1 [Compound 047, N-(3-(5-(2-acetamidopyridin-4-yl)-2-(methylthio)-1H-imidazol-4-yl)phenyl)-2-((1-oxoisoindolin-2-yl)methyl)benzamide]	0.096	> 4.3	> 10	> 100	0.61	> 10	> 10	0.759
C=CC(=O)Nc1ccc(OC)c(Nc2cc(-c3[nH]c(SC)nc3-c3cccc(NC(=O)c4ccccc4CN4Cc5ccccc5C4=O)c3)ccn2)c1 [Compound 064, N-(3-(5-(2-((5-acrylamido-2-methoxyphenyl)amino)pyridin-4-yl)-2-(methylthio)-1H-imidazol-4-yl)phenyl)-2-((1-oxoisoindolin-2-yl)methyl)benzamide]	0.011	> 4	2.5	0.701	0.206	0.5	> 10	0.008
CSc1nc(-c2cccc(NC(=O)c3c(F)ccc(O)c3CN3C(=O)c4ccccc4C3=O)c2)c(-c2ccnc(Nc3ccccc3)c2)[nH]1 [Compound 068, 2-((1,3-dioxoisoindolin-2-yl)methyl)-6-fluoro-3-hydroxy-N-(3-(2-(methylthio)-5-(2-(phenylamino)pyridin-4-yl)-1H-imidazol-4-yl)phenyl)benzamide]		> 5.6	> 10			> 10	> 10	

Further lines, results first:

IC50 [1] [µM]	EC50 [2] [µM]	EC50 [3] [µM]	IC50 [4] [µM]	IC50 [5] [µM]	EC50 [6] [µM]	EC50 [7] [µM]	IC50 [8] [µM]	Compound
	> 3.3	> 10			> 8.7	> 10		CSc1nc(-c2cccc(NC(=O)c3ccccc3CN3C(=O)c4ccccc4C3=O)c2)c(-c2ccnc(Nc3ccccc3)c2)[nH]1 [Compound 067, 2-((1,3-dioxoisoindolin-2-yl)methyl)-N-(3-(2-(methylthio)-5-(2-(phenylamino)pyridin-4-yl)-1H-imidazol-4-yl)phenyl)benzamide]
	> 2.1	> 5.6			> 5.3	> 10		CSc1nc(-c2cccc(NC(=O)c3ccccc3CN3Cc4ccccc4C3=O)c2)c(-c2ccnc(Nc3ccccc3)c2)[nH]1 [Compound 069, N-(3-(2-(methylthio)-5-(2-(phenylamino)pyridin-4-yl)-1H-imidazol-4-yl)phenyl)-2-((1-oxoisoindolin-2-yl)methyl)benzamide]
